Measured values as given in patent publication US5420140A, “Difluorinated quinolones useful for treating bacterial infections” (Bouchara S.A., priority 1991, dated 1995).
Converted amounts (≈) assume the structure as drawn.

Key:
[1] = system: Streptococcus faecalis ATCC 8043; test: Determination of MIC and MBC by microdilution method, Streptococcus faecalis ATCC 8043; type: cell-based; details: for MBC / MIC: Enterococcus faecalis; for MBC: ATCC8043, S. faecalis ATCC 8043, read-out: Minimal bactericidal concentration (MBC); for MIC: ATCC8043, read-out: Minimal inhibitory concentration (MIC); for MIC / Minimal bactericidal concentration (MBC) / Minimal inhibitory concentration (MIC): S. faecalis ATCC 8043; for MIC / Minimal inhibitory concentration (MIC): Mueller-Hinton broth, 18 hours at 37°
Experimental: (§1) The compound have been tested towards 7 reference strains:
Streptococcus faecalis ATCC 8043
(§2) The preparation of these mother liquors has been performed and vary depending on the molecules as a function of the solubility criterions. Inoculation has been done by adding in each will, 10 μl of a dilution in saline of 18 hours old broth in a brain-heart broth, such as each well contains about 10^6 bacterias/ml. […]

[2] = system: Staphylococcus aureus ATCC 25923; test: Determination of MIC and MBC by microdilution method, Staphylococcus aureus ATCC 25923; type: cell-based; details: for MIC / MBC: Staphylococcus aureus; for MIC: ATCC25923, 18 h, read-out: Minimal inhibitory concentration (MIC); for MIC / Minimal bactericidal concentration (MBC) / Minimal inhibitory concentration (MIC): S. aureus ATCC 25923; for MIC / Minimal inhibitory concentration (MIC): Mueller-Hinton broth, 18 hours at 37°; for MBC: ATCC25923, S. aureus ATCC 25923, read-out: Minimal bactericidal concentration (MBC)
Experimental: as §1
Staphylococcus aureus ATCC 25923
(§3) The determination of minimal inhibitory concentrations (MIC) has been performed using a microdution method (microplates and inoculator Dynatech) in liquid medium (MUELLER-HINTON broth) under a volume of 100 μl and for a range of concentrations from 128 to 0.06 mg/l, prepared from a mother liquor of antibiotics titrating 512 mg/l. The preparation of these mother liquors has been performed and vary depending on the molecules as a function of the solubility criterions. Inoculation has been done by adding in each will, 10 μl of a dilution in saline of 18 hours old broth in a brain-heart broth, such as each well contains about 10^6 bacterias/ml.
(§4) The Minimal Inhibitory Concentrations are read as the first concentration of antibiotic which will not give a growth macroscopically detectable after 18 hours incubating at 37°.

[3] = system: Escherichia coli ATCC 25922; test: Determination of MIC and MBC by microdilution method, Escherichia coli ATCC 25922; type: cell-based; details: E. coli ATCC 25922; for MIC / MBC: Escherichia coli, ATCC25922; for MIC / Minimal inhibitory concentration (MIC): Mueller-Hinton broth, 18 hours at 37°; for MIC: read-out: Minimal inhibitory concentration (MIC); for MBC: read-out: Minimal bactericidal concentration (MBC)
Experimental: as §1
Escherichia coli ATCC 25922
as §3, §4

[4] = system: Bacillus subtilis ATCC 9372; test: Determination of MIC and MBC by microdilution method, Bacillus subtilis ATCC 9372; type: cell-based; details: for MIC: ATCC9372, Mueller-Hinton broth, read-out: Minimal inhibitory concentration (MIC); for MIC / Minimal inhibitory concentration (MIC): 18 hours at 37°; for MBC: ATCC9372, read-out: Minimal bactericidal concentration (MBC); for Minimal inhibitory concentration (MIC): Mueller-Hinton broth
Experimental: as §1
Bacillus subtilis ATCC 9372
as §3, §4

[5] = system: Acinetobacter Baumanii ATCC 17904; test: Determination of MIC and MBC by microdilution method, Acinetobacter; type: cell-based; details: for MIC / MBC: Acinetobacter baumannii; for MIC: ATCC17904, 18 h, read-out: Minimal inhibitory concentration (MIC); for MIC / Minimal bactericidal concentration (MBC) / Minimal inhibitory concentration (MIC): Acinetobacter Baumanii ATCC 17904; for MIC / Minimal inhibitory concentration (MIC): Mueller-Hinton broth, 18 hours at 37°; for MBC: ATCC17904, Acinetobacter Baumanii ATCC 17904, read-out: Minimal bactericidal concentration (MBC)
Experimental: The compound have been tested towards 7 reference strains: […]
as §3, §4

[6] = system: Pseudomonas aeruginosa ATCC 22853; test: Determination of MIC and MBC by microdilution method, Pseudomonas aeruginosa ATCC 22853; type: cell-based; details: for MIC / MBC: Pseudomonas aeruginosa; for MIC: ATCC22853, 18 h, read-out: Minimal inhibitory concentration (MIC); for MIC / Minimal bactericidal concentration (MBC) / Minimal inhibitory concentration (MIC): P. aeruginosa ATCC 22853; for MIC / Minimal inhibitory concentration (MIC): Mueller-Hinton broth, 18 hours at 37°; for MBC: ATCC22853, P. aeruginosa ATCC 22853, read-out: Minimal bactericidal concentration (MBC)
Experimental: as §1
Pseudomonas aeruginosa ATCC 22853
as §2

[7] = system: S. aureus CB-951; test: Determination of MIC and MBC by microdilution method, S. aureus CB-951; type: cell-based, Staphylococcus aureus; details: erythromycinolincomycino, pefloxacino resistant; for MIC / MBC: Staphylococcus aureus; for MIC: CB951, 18 h, read-out: Minimal inhibitory concentration (MIC); for MIC / Minimal bactericidal concentration (MBC) / Minimal inhibitory concentration (MIC): S. aureus CB-951, methicillino; for MIC / Minimal inhibitory concentration (MIC): Mueller-Hinton broth, 18 hours at 37°; for MBC: CB951, S. aureus CB-951, methicillino, read-out: Minimal bactericidal concentration (MBC)
Experimental: as §1
Staphylococcus aureus CB 951
as §3, §4

SMILES | MBC [1] [µg/mL] | MIC [1] [µg/mL] | MIC [2] [µg/mL] | MBC [2] [µg/mL] | MIC [3] [µg/mL] | MBC [3] [µg/mL] | MIC [5] [µg/mL] | MBC [5] [µg/mL] | MIC [6] [µg/mL] | MBC [6] [µg/mL] | MIC [7] [µg/mL] | MBC [7] [µg/mL] | further results
C=CCn1cc(C(=O)O)c(=O)c2cc(F)c(N3CCC(CN)CC3)c(F)c21 [Compound 6, 7-(4-aminomethylpiperidinyl-1) 6,8-difluoro 1-allyl 4-oxo 1,4-dihydroquinoleinyl-3 carboxylic acid] | 4 (≈ 10.6 µM) | 1 (≈ 2.65 µM) | 1 (≈ 2.65 µM) | 2 (≈ 5.3 µM) | 1 (≈ 2.65 µM) | 2 (≈ 5.3 µM) | 1 (≈ 2.65 µM) | 2 (≈ 5.3 µM) | 8 (≈ 21.2 µM) | 16 (≈ 42.4 µM) | 32 (≈ 84.8 µM) | 64 (≈ 170 µM) | MIC [4]: 1 µg/mL (≈ 2.65 µM); MBC [4]: 2 µg/mL (≈ 5.3 µM)
NCC1CCN(c2c(F)cc3c(=O)c(C(=O)O)cn(Cc4ccccc4Cl)c3c2F)CC1 [Compound 5, 7-(4-aminomethylpiperidinyl-1) 6,8-difluoro 1-(2-chlorobenzyl) 4-oxo 1,4-dihydroquinoleinyl-3 carboxylic acid] | > 16 | 16 (≈ 34.6 µM) | 2 (≈ 4.33 µM) | 4 (≈ 8.66 µM) | 4 (≈ 8.66 µM) | 8 (≈ 17.3 µM) | 4 (≈ 8.66 µM) | 8 (≈ 17.3 µM) | > 16 | > 16 | > 16 | > 16 | –
C=CCn1cc(C(=O)O)c(=O)c2cc(F)c(N3CCC(NC(C)=O)CC3)c(F)c21 [Compound 9, 7-(4-acetylaminopiperidinyl-1) 6,8-difluoro 1-allyl 4-oxo 1,4-dihydroquinoleinyl-3 carboxylic acid] | – | – | – | – | – | – | – | – | – | – | – | – | Minimal bactericidal concentration (MBC) [1]: 16 µg/mL (≈ 39.5 µM); Minimal inhibitory concentration (MIC) [1]: 4 µg/mL (≈ 9.87 µM); Minimal bactericidal concentration (MBC) [2]: 4 µg/mL (≈ 9.87 µM); Minimal inhibitory concentration (MIC) [2]: 1 µg/mL (≈ 2.47 µM); Minimal bactericidal concentration (MBC) [3]: 32 µg/mL (≈ 78.9 µM); Minimal inhibitory concentration (MIC) [3]: 16 µg/mL (≈ 39.5 µM); Minimal bactericidal concentration (MBC) [4]: 2 µg/mL (≈ 4.93 µM); Minimal inhibitory concentration (MIC) [4]: 1 µg/mL (≈ 2.47 µM); Minimal bactericidal concentration (MBC) [5]: 8 µg/mL (≈ 19.7 µM); Minimal inhibitory concentration (MIC) [5]: 4 µg/mL (≈ 9.87 µM); Minimal bactericidal concentration (MBC) [6]: > 128 µg/mL; Minimal inhibitory concentration (MIC) [6]: > 128 µg/mL; Minimal bactericidal concentration (MBC) [7]: 8 µg/mL (≈ 19.7 µM); Minimal inhibitory concentration (MIC) [7]: 4 µg/mL (≈ 9.87 µM)
CCn1cc(C(=O)O)c(=O)c2cc(F)c(N3CCN(C)CC3)cc21 [Pefloxacine, reference compound] | 1 (≈ 3 µM) | 1 (≈ 3 µM) | 0.12 (≈ 0.36 µM) | 0.25 (≈ 0.75 µM) | 0.06 (≈ 0.18 µM) | 0.06 (≈ 0.18 µM) | 0.06 (≈ 0.18 µM) | 0.06 (≈ 0.18 µM) | 2 (≈ 6 µM) | 2 (≈ 6 µM) | 4 (≈ 12 µM) | 4 (≈ 12 µM) | –
CCOC(=O)c1ccc(NC(=O)NCC2CCN(c3c(F)cc4c(=O)c(C(=O)O)cn(CC)c4c3F)CC2)cc1 [Compound 15, 7-[4-(4-ethoxycarbonylphenyl)aminocarbonylaminomethylpiperidinyl-1] 6,8-difluoro 1-ethyl] | > 16 | > 16 | 0.12 (≈ 0.216 µM) | 0.12 (≈ 0.216 µM) | > 16 | > 16 | 0.12 (≈ 0.216 µM) | 0.25 (≈ 0.449 µM) | > 16 | > 16 | 1 (≈ 1.8 µM) | 2 (≈ 3.59 µM) | –
CCn1cc(C(=O)O)c(=O)c2cc(F)c(N3CCC(CN)CC3)c(F)c21 [Compound b, 7-(4-aminomethylpiperidinyl-1) 6,8-difluoro 1-ethyl 4-oxo 1,4-dihydroquinoleinyl-3 carboxylic acid] | – | – | – | – | – | – | – | – | – | – | – | – | Minimal bactericidal concentration (MBC) [1]: 1 µg/mL (≈ 2.74 µM); Minimal inhibitory concentration (MIC) [1]: 0,5 μg/ml; Minimal bactericidal concentration (MBC) [2]: 0,5 μg/ml; Minimal inhibitory concentration (MIC) [2]: 0,5 μg/ml; Minimal bactericidal concentration (MBC) [3]: 0,5 μg/ml; Minimal inhibitory concentration (MIC) [3]: 0,5 μg/ml; Minimal bactericidal concentration (MBC) [5]: 0,5 μg/ml; Minimal inhibitory concentration (MIC) [5]: 0,5 μg/ml; Minimal bactericidal concentration (MBC) [6]: 8 µg/mL (≈ 21.9 µM); Minimal inhibitory concentration (MIC) [6]: 4 µg/mL (≈ 10.9 µM); Minimal bactericidal concentration (MBC) [7]: 4 µg/mL (≈ 10.9 µM); Minimal inhibitory concentration (MIC) [7]: 4 µg/mL (≈ 10.9 µM)
CCn1cc(C(=O)O)c(=O)c2cc(F)c(N3CCC(CNC(=O)Nc4cccc(F)c4)CC3)c(F)c21 [Compound 13, 7-[4-(3-fluorophenyl)aminocarbonylaminomethylpiperidinyl-1] 6,8-difluoro 1-ethyl] | > 16 | > 16 | 0.12 (≈ 0.239 µM) | 0.25 (≈ 0.498 µM) | > 16 | > 16 | 0.06 (≈ 0.119 µM) | 0.06 (≈ 0.119 µM) | > 16 | > 16 | 0.25 (≈ 0.498 µM) | 0.5 (≈ 0.995 µM) | –
C=CCn1cc(C(=O)O)c(=O)c2cc(F)c(N3CCC(CNC(=O)NC(=O)c4ccccc4)CC3)c(F)c21 [Compound 11, 7-[(4-benzoylaminocarboxamidomethyl)piperidinyl-1] 6,8-difluoro 1-allyl 4-oxo 1,4-dihydroquinoleinyl-3 carboxylic acid] | – | – | – | – | – | – | – | – | – | – | – | – | Minimal bactericidal concentration (MBC) [1]: 32 µg/mL (≈ 61 µM); Minimal inhibitory concentration (MIC) [1]: 16 µg/mL (≈ 30.5 µM); Minimal bactericidal concentration (MBC) [2]: 4 µg/mL (≈ 7.63 µM); Minimal inhibitory concentration (MIC) [2]: 1 µg/mL (≈ 1.91 µM); Minimal bactericidal concentration (MBC) [3]: > 128 µg/mL; Minimal inhibitory concentration (MIC) [3]: 128 µg/mL (≈ 244 µM); Minimal bactericidal concentration (MBC) [4]: 1 µg/mL (≈ 1.91 µM); Minimal inhibitory concentration (MIC) [4]: 0,5 μg/ml; Minimal bactericidal concentration (MBC) [5]: 4 µg/mL (≈ 7.63 µM); Minimal inhibitory concentration (MIC) [5]: 1 µg/mL (≈ 1.91 µM); Minimal bactericidal concentration (MBC) [6]: > 128 µg/mL; Minimal inhibitory concentration (MIC) [6]: 128 µg/mL (≈ 244 µM); Minimal bactericidal concentration (MBC) [7]: 4 µg/mL (≈ 7.63 µM); Minimal inhibitory concentration (MIC) [7]: 4 µg/mL (≈ 7.63 µM)
CCn1cc(C(=O)O)c(=O)c2cc(F)c(N3CCC(CNC(=O)Nc4ccc(C)cc4)CC3)c(F)c21 [Compound 12] | 4 (≈ 8.02 µM) | 4 (≈ 8.02 µM) | 0.06 (≈ 0.12 µM) | 0.06 (≈ 0.12 µM) | > 16 | > 16 | 0.06 (≈ 0.12 µM) | 0.06 (≈ 0.12 µM) | > 16 | > 16 | 0.25 (≈ 0.501 µM) | 1 (≈ 2.01 µM) | –
NCC1CCN(c2c(F)cc3c(=O)c(C(=O)O)cn(Cc4ccc(F)cc4)c3c2F)CC1 [Compound 4, 7-(4-aminomethylpiperidinyl-1) 6,8-difluoro 1-(4-fluorobenzyl) 4-oxo 1,4-dihydroquinoleinyl-3 carboxylic acid] | 12 (≈ 26.9 µM) | > 12 | 12 (≈ 26.9 µM) | 12 (≈ 26.9 µM) | > 12 | > 12 | 12 (≈ 26.9 µM) | > 12 | > 12 | > 12 | > 12 | 12 (≈ 26.9 µM) | –
CCn1cc(C(=O)O)c(=O)c2cc(F)c(N3CCC(CN)CC3)c(F)c21 [Compound 1, 7-(4-aminomethylpiperidinyl-1) 6,8-difluoro 1-ethyl 4-oxo 1,4-dihydroquinoleinyl-3 carboxylic acid] | 0.5 (≈ 1.37 µM) | 0.5 (≈ 1.37 µM) | 0.25 (≈ 0.684 µM) | 0.25 (≈ 0.684 µM) | 0.5 (≈ 1.37 µM) | 0.5 (≈ 1.37 µM) | 0.25 (≈ 0.684 µM) | 0.5 (≈ 1.37 µM) | 2 (≈ 5.47 µM) | 4 (≈ 10.9 µM) | 2 (≈ 5.47 µM) | 2 (≈ 5.47 µM) | MIC [4]: 0.25 µg/mL (≈ 0.684 µM); MBC [4]: 0.25 µg/mL (≈ 0.684 µM)
